Among the data in US11725000B2, “Apoptosis inhibitors” (National Institute of Biological Sciences, Beijing, priority 2017, dated 2023) are EC50 values, retold here.

The test concerns U2OS_Bim cells. The test can be described thus: Apoptosis inhibition assay (Bim-induced apoptosis, cell viability by ATP level). The test is classed as cell-based. As to conditions: U2OS_Bim cells, numbering of Tables 4a/4b, read-out: EC50. In outline: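 Apoptosis was triggered by doxycycline (0.1 μg/mL) induction of Bim, one hour after compound addition to U2OS_Bim cells. Survival was measured after 24 h from cellular ATP (CellTiter-Glo), relative to DMSO, with zVAD at 20 μM as rescue control. Data are duplicate means, some estimated from preliminary results.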

The mark [1] stands for this setting: estimated (*Est.) / preliminary results.

What is called EC50 is the concentration at which the effect is half-maximal.

Read-outs that look alike come from different tables or passages of the source.

Take `Cc1cc(-c2cc(F)c(=O)n(Cc3ccc4c(c3)OCCO4)c2)nc(S(=O)(=O)CCC(OCc2ccccc2F)c2ccccc2)n1` (stereo not shown) [Compound 331, 1-((2,3-dihydrobenzo[b][1,4]dioxin-6-yl)methyl)-3-fluoro-5-(2-(3-(2-fluorobenzyloxy)-3-phenylpropylsulfonyl)-6-methylpyrimidin-4-yl)pyridin-2 (1H)-one]: where the note is “means of duplicates”, the EC50 was 1 to 1000 nM. As to `C#CCOc1cc(Cn2cc(-c3cc(C)nc(S(=O)(=O)CCC(OCc4ccccc4F)c4ccccc4)n3)cc(F)c2=O)ccc1OC` (stereo not shown) [Compound 332, 3-fluoro-5-(2-((3-((2-fluorobenzyl)oxy)-3-phenylpropyl)sulfonyl)-6-methylpyrimidin-4-yl)-1-(4-methoxy-3-(prop-2-yn-1-yloxy)benzyl)pyridin-2 (1H)-one], the EC50 (means of duplicates) lay within 1 to 1000 nM. Still for that read-out and setting: then `Cc1cc(-c2cc(F)c(=O)n(Cc3ccc4c(c3)OCO4)c2)nc(S(=O)(=O)CCC(Oc2cccnc2)c2ccccc2)n1` (stereo not shown) [Compound 333, 1-(benzo[d][1,3]dioxol-5-ylmethyl)-3-fluoro-5-(6-methyl-2-((3-phenyl-3-(pyridin-3-yloxy)propyl)sulfonyl)pyrimidin-4-yl)pyridin-2 (1H)-one], with 1 to 1000 nM.

With `CS(=O)(=O)c1nc(CF)cc(-c2cc(F)c(=O)n(Cc3ccc4c(c3)OCO4)c2)n1` [Compound 334, 1-(benzo[d][1,3]dioxol-5-ylmethyl)-3-fluoro-5-(6-(fluoromethyl)-2-(methylsulfonyl)pyrimidin-4-yl)pyridin-2 (1H)-one], the concentration for a half-maximal effect (EC50) (means of duplicates) was in the range of 1000 to 10000 nM. Still for that read-out and setting: as for `O=c1c(F)cc(-c2cc(CF)nc(S(=O)(=O)CCC(OCc3ccccc3F)c3ccccc3)n2)cn1Cc1ccc2c(c1)OCO2` (stereo not shown) [Compound 335, 1-(benzo[d][1,3]dioxol-5-ylmethyl)-3-fluoro-5-(2-((3-((2-fluorobenzyl)oxy)-3-phenylpropyl)sulfonyl)-6-(fluoromethyl)pyrimidin-4-yl)pyridin-2 (1H)-one], the figure is 1 to 1000 nM. As for `Cc1cc(-c2cc(F)c(=O)n(Cc3ccc4nnn(C)c4c3)c2)nc(S(=O)(=O)CCCn2cnc3ccccc32)n1` [Compound 337, 5-(2-((3-(1H-benzo[d]imidazol-1-yl)propyl)sulfonyl)-6-methylpyrimidin-4-yl)-3-fluoro-1-((1-methyl-1H-benzo[d][1,2,3]triazol-6-yl)methyl)pyridin-2 (1H)-one], under setting [1], the EC50 was 1 to 1000 nM. Same read-out and setting: as for `Cc1cc(-c2cc(F)c(=O)n(Cc3ccc4c(c3)OCO4)c2)nc(S(=O)(=O)CCCn2cnc3ccccc32)n1` [Compound 338, 5-(2-((3-(1H-benzo[d]imidazol-1-yl)propyl)sulfonyl)-6-methylpyrimidin-4-yl)-1-(benzo[d][1,3]dioxol-5-ylmethyl)-3-fluoropyridin-2 (1H)-one], the figure is 1 to 1000 nM; as for `Cc1cc(-c2cc(F)c(=O)n(Cc3cccc(N(C)C)c3)c2)nc(S(=O)(=O)CCC(OCc2ccccc2F)c2ccccc2)n1` (stereo not shown) [Compound 339], 1 to 1000 nM; as for `Cc1cc(-c2cc(F)c(=O)n(Cc3ccn4ccnc4c3)c2)nc(S(=O)(=O)CCC(OCc2ccccc2F)c2ccccc2)n1` (stereo not shown) [Compound 340], 1 to 1000 nM.

As to `Cc1cc(-c2cc(F)c(=O)n(Cc3ccc4[nH]c(=O)[nH]c4c3)c2)nc(S(=O)(=O)CCC(OCc2ccccc2F)c2ccccc2)n1` (stereo not shown) [Compound 341], under setting [1], the EC50 was 1 to 1000 nM. For `Cc1cc(-c2cc(F)c(=O)n(Cc3ccc4c(c3)n(C)c(=O)n4C)c2)nc(S(=O)(=O)CCC(OCc2ccccc2F)c2ccccc2)n1` (stereo not shown) [Compound 342], under setting [1], the 50% effective concentration (EC50) was 1 to 1000 nM.

For `Cc1cc(-c2cc(F)c(=O)n(Cc3ccc4cn(C)nc4c3)c2)nc(S(=O)(=O)CCC(OCc2ccccc2F)c2ccccc2)n1` (stereo not shown) [Compound 343], the concentration for a half-maximal effect (EC50) under setting [1] was 1 to 1000 nM. Take `Cc1cc(-c2cc(F)c(=O)n(Cc3ccc4c(c3)NC(=O)CO4)c2)nc(S(=O)(=O)CCC(OCc2ccccc2F)c2ccccc2)n1` (stereo not shown) [Compound 344]: the 50% effective concentration (EC50) under setting [1] is 1 to 1000 nM. On the same count and under the same terms, as for `Cc1cc(-c2cc(F)c(=O)n(Cc3ccc4[nH]c(=O)c(=O)[nH]c4c3)c2)nc(S(=O)(=O)CCC(OCc2ccccc2F)c2ccccc2)n1` (stereo not shown) [Compound 345], the figure is 1 to 1000 nM; as for `Cc1cc(-c2cc(F)c(=O)n(Cc3ccc4c(c3)NCCN4)c2)nc(S(=O)(=O)CCC(OCc2ccccc2F)c2ccccc2)n1` (stereo not shown) [Compound 346], 1 to 1000 nM; as for `Cc1cc(-c2cc(F)c(=O)n(Cc3ccc4c(c3)N(C)CCN4C)c2)nc(S(=O)(=O)CCC(OCc2ccccc2F)c2ccccc2)n1` (stereo not shown) [Compound 347], 1 to 1000 nM. Consider `Cc1cc(-c2cc(F)c(=O)n(Cc3ccc4ccn(C)c4c3)c2)nc(S(=O)(=O)CCC(OCc2ccccc2F)c2ccccc2)n1` (stereo not shown) [Compound 348], for which the EC50 under setting [1] was 1 to 1000 nM. As to `Cc1cc(-c2cc(F)c(=O)n(Cc3ccc4ccn(C)c4c3)c2)nc(S(=O)(=O)CCC(OCc2ccccc2F)c2ccccc2)n1` (stereo not shown) [Compound 349], the concentration for a half-maximal effect (EC50) under setting [1] was 1 to 1000 nM. Take `Cc1cc(-c2cc(F)c(=O)n(Cc3ccc4c(c3)CC(=O)N4)c2)nc(S(=O)(=O)CCC(OCc2ccccc2F)c2ccccc2)n1` (stereo not shown) [Compound 350]: under setting [1], the EC50 was 1 to 1000 nM. For the molecule `Cc1cc(-c2cc(F)c(=O)n(Cc3ccc4c(c3)CC(=O)N4C)c2)nc(S(=O)(=O)CCC(OCc2ccccc2F)c2ccccc2)n1` (stereo not shown) [Compound 351], under setting [1], the concentration for a half-maximal effect (EC50) was 1 to 1000 nM. As for `Cc1cc(-c2cc(F)c(=O)n(Cc3ccc4c(c3)CCN4C)c2)nc(S(=O)(=O)CCC(OCc2ccccc2F)c2ccccc2)n1` (stereo not shown) [Compound 352], the concentration for a half-maximal effect (EC50) under setting [1] is 1 to 1000 nM. With `Cc1cc(-c2cc(F)c(=O)n(Cc3ccc4c(c3)OCN4C)c2)nc(S(=O)(=O)CCC(OCc2ccccc2F)c2ccccc2)n1` (stereo not shown) [Compound 353], under setting [1], the EC50 is 1 to 1000 nM. Turning to `Cc1cc(-c2cc(F)c(=O)n(Cc3ccc4c(c3)N(C)CO4)c2)nc(S(=O)(=O)CCC(OCc2ccccc2F)c2ccccc2)n1` (stereo not shown) [Compound 354], the EC50 under setting [1] was 1 to 1000 nM.

For `Cc1cc(-c2cc(F)c(=O)n(Cc3ccc4c(c3)CCCO4)c2)nc(S(=O)(=O)CCC(OCc2ccccc2F)c2ccccc2)n1` (stereo not shown) [Compound 355], under setting [1], the EC50 is 1 to 1000 nM.

As to `Cc1cc(-c2cc(F)c(=O)n(Cc3ccc4c(c3)N(C)CCO4)c2)nc(S(=O)(=O)CCC(OCc2ccccc2F)c2ccccc2)n1` (stereo not shown) [Compound 356], under setting [1], the EC50 was 1 to 1000 nM. For the molecule `Cc1cc(-c2cc(F)c(=O)n(Cc3ccc4c(c3)OCCN4C)c2)nc(S(=O)(=O)CCC(OCc2ccccc2F)c2ccccc2)n1` (stereo not shown) [Compound 357], under setting [1], the EC50 was 1 to 1000 nM. With `Cc1cc(-c2cc(F)c(=O)n(Cc3ccc4c(c3)OCCN4)c2)nc(S(=O)(=O)CCC(OCc2ccccc2F)c2ccccc2)n1` (stereo not shown) [Compound 358], the concentration giving a half-maximal response (EC50) under setting [1] is 1 to 1000 nM.

For the molecule `Cc1cc(-c2cc(F)c(=O)n(Cc3ccc4c(c3)NCCO4)c2)nc(S(=O)(=O)CCC(OCc2ccccc2F)c2ccccc2)n1` (stereo not shown) [Compound 359], the 50% effective concentration (EC50) under setting [1] was 1 to 1000 nM. On to `Cc1cc(-c2cc(F)c(=O)n(Cc3ccnc(CCO)c3)c2)nc(S(=O)(=O)CCC(OCc2ccccc2F)c2ccccc2)n1` (stereo not shown) [Compound 360], for which the EC50 under setting [1] was 1 to 1000 nM. Consider `Cc1cc(-c2cc(F)c(=O)n(Cc3ccnc(N(C)CO)c3)c2)nc(S(=O)(=O)CCC(OCc2ccccc2F)c2ccccc2)n1` (stereo not shown) [Compound 361], for which, under setting [1], the EC50 was 1 to 1000 nM. Consider `Cc1cc(-c2cc(F)c(=O)n(Cc3ccc4c(c3)OCO4)c2)nc(S(=O)(=O)CCCN2C(=O)Cc3ccccc32)n1` [Compound 362], for which the 50% effective concentration (EC50) under setting [1] was 1 to 1000 nM. On to `Cc1cc(-c2cc(F)c(=O)n(Cc3ccc4nnn(C)c4c3)c2)nc(S(=O)(=O)CCCN2C(=O)Cc3ccccc32)n1` [Compound 363], for which the EC50 under setting [1] is 1 to 1000 nM. Turning to `Cc1cc(-c2cc(F)c(=O)n(Cc3ccc4c(c3)OCO4)c2)nc(S(=O)(=O)CCCC(=O)NC23CC4CC(CC(C4)C2)C3)n1` [Compound 364], the EC50 under setting [1] is 1 to 1000 nM. The same measure, in the same setting: as for `Cc1cc(-c2cc(F)c(=O)n(Cc3ccc4nnn(C)c4c3)c2)nc(S(=O)(=O)CCCC(=O)NC23CC4CC(CC(C4)C2)C3)n1` [Compound 365], the figure is 1 to 1000 nM; as for `Cc1cc(-c2cc(F)c(=O)n(Cc3ccc4c(c3)OCO4)c2)nc(S(=O)(=O)CCCn2c(=O)oc3ccccc32)n1` [Compound 366], 1 to 1000 nM; as for `Cc1cc(-c2cc(F)c(=O)n(Cc3ccc4nnn(C)c4c3)c2)nc(S(=O)(=O)CCCn2c(=O)oc3ccccc32)n1` [Compound 367], 1 to 1000 nM.

With `Cc1cc(-c2ccc(=O)n(Cc3ccc4c(c3)OCCO4)n2)nc(S(=O)(=O)CCC(OCc2ccccc2F)c2ccccc2)n1` (stereo not shown) [Compound 368], the concentration giving a half-maximal response (EC50) under setting [1] is 1 to 1000 nM. Same read-out and setting: then `Cc1cc(-c2ccc(=O)n(Cc3ccc4nnn(C)c4c3)n2)nc(S(=O)(=O)CCC(OCc2ccccc2F)c2ccccc2)n1` (stereo not shown) [Compound 369], with 1 to 1000 nM; and `Cc1cc(-c2cc(F)c(=O)n(Cc3ccc4c(c3)OCO4)c2)nc(S(=O)(=O)CCCC(=O)N(c2ccccc2)C2CCC2)n1` [Compound 370], with 1 to 1000 nM; and `Cc1cc(-c2cc(F)c(=O)n(Cc3ccc4c(c3)OCO4)c2)nc(S(=O)(=O)CCCC(=O)N(c2ccccc2)C(C)(C)C)n1` [Compound 371], with 1 to 1000 nM. Consider `Cc1cc(-c2cc(F)c(=O)n(Cc3ccc4c(c3)OCO4)c2)nc(S(=O)(=O)CCCC(=O)N(c2ccccc2)C2CC2)n1` [Compound 372], for which, under setting [1], the EC50 was 1 to 1000 nM. The same measure, in the same setting: as for `Cc1cc(-c2cc(F)c(=O)n(Cc3ccc4nnn(C)c4c3)c2)nc(S(=O)(=O)CCCC(=O)N(c2ccccc2)C2CCC2)n1` [Compound 373], the figure is 1 to 1000 nM; as for `Cc1cc(-c2cc(F)c(=O)n(Cc3ccc4nnn(C)c4c3)c2)nc(S(=O)(=O)CCCC(=O)N(c2ccccc2)C(C)(C)C)n1` [Compound 374], 1 to 1000 nM; as for `Cc1cc(-c2cc(F)c(=O)n(Cc3ccc4nnn(C)c4c3)c2)nc(S(=O)(=O)CCCC(=O)N(c2ccccc2)C2CC2)n1` [Compound 375], 1 to 1000 nM. Take `Cc1cc(-c2cc(F)c(=O)n(Cc3ccc4c(c3)OCO4)c2)nc(S(=O)(=O)CCCN(c2ccccc2)C2CCC2)n1` [Compound 376]: the concentration for a half-maximal effect (EC50) under setting [1] is 1 to 1000 nM. As to `Cc1cc(-c2cc(F)c(=O)n(Cc3ccc4c(c3)OCO4)c2)nc(S(=O)(=O)CCCN(c2ccccc2)C(C)(C)C)n1` [Compound 377], the concentration for a half-maximal effect (EC50) under setting [1] was 1 to 1000 nM.
